# Source: paper PMC6214715 (Journal of veterinary pharmacology and therapeutics, 2018)
# Read-outs that look alike come from different tables or passages of the source.
# Assays:
# [1] = test system: cat liver microsomes; type: in vitro ADME; settings: pooled cat liver microsomes (n = 16); (+)-M1 at 10 μM, (+)-M2 at 0.5 μM
# [2] = molecular target: CYP3A12 (Canis lupus familiaris, UniProt P24463); type: in vitro ADME, canine; settings: recombinant CYP3A12; (+)-M1 10 μM, (+)-M2 0.5 μM
# [3] = molecular target: T1, CYP2C21 (Canis lupus familiaris, UniProt P56594); type: in vitro ADME, canine; settings: recombinant CYP2C21; (+)-M1 10 μM, (+)-M2 0.5 μM
# T1 sequence (P56594 1-487): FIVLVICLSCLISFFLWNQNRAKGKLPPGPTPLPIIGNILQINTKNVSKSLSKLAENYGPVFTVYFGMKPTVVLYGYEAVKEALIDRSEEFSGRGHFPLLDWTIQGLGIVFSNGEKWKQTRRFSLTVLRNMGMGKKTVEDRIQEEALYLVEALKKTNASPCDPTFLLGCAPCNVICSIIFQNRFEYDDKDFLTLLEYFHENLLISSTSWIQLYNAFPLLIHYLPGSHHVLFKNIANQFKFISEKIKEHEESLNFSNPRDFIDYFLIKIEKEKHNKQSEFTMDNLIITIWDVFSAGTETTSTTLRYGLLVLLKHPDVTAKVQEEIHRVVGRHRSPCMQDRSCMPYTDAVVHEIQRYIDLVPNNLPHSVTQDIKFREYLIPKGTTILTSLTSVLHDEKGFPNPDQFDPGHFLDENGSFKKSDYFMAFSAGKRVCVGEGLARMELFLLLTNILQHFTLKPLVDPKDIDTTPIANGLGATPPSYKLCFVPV
# [4] = test system: human liver microsomes; type: in vitro ADME; settings: pooled human liver microsomes (n = 48); (+)-M1 at 10 μM, (+)-M2 at 0.5 μM
# [5] = molecular target: T2, CYP2D15 (Canis lupus familiaris, UniProt Q29473); type: in vitro ADME, canine; settings: recombinant CYP2D15; (+)-M1 10 μM, (+)-M2 0.5 μM
# T2 sequence (Q29473 1-500): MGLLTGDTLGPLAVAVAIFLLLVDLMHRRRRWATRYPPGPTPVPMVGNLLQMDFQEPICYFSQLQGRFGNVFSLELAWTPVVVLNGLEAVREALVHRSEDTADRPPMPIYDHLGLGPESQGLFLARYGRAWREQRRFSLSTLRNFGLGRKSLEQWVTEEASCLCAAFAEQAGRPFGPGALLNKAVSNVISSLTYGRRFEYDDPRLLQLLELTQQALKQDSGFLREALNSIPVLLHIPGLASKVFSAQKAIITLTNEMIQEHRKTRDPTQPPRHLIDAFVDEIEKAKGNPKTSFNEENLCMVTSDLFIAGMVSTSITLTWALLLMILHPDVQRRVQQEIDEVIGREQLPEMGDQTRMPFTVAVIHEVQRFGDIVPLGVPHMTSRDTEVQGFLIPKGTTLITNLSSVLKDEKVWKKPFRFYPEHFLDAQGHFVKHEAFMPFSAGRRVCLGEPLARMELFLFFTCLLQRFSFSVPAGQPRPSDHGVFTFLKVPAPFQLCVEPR
# [6] = test system: dog liver microsomes; type: in vitro ADME; settings: for Km / Vmax: formation of (+)-M5 from substrate
# [7] = molecular target: T3, CYP1A2 (Canis lupus familiaris, UniProt P56592); type: in vitro ADME, canine; settings: recombinant CYP1A2; (+)-M1 10 μM, (+)-M2 0.5 μM
# T3 sequence (P56592 1-512): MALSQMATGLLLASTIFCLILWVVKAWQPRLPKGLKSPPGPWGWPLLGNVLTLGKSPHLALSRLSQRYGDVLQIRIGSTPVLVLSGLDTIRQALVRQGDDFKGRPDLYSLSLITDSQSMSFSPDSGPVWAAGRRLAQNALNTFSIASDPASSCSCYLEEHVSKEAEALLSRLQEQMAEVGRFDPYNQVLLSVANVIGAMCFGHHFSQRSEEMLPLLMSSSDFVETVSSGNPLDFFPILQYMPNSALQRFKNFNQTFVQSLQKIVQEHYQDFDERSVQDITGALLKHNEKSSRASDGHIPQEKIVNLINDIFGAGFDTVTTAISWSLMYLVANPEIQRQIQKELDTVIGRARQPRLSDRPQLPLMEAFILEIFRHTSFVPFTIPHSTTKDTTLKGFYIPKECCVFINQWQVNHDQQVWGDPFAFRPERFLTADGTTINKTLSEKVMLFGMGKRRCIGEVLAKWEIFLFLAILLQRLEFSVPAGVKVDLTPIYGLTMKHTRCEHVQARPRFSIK
# [8] = molecular target: T4, CYP2B11 (Canis lupus familiaris, UniProt P24460); type: in vitro ADME, canine; settings: recombinant CYP2B11; (+)-M1 10 μM, (+)-M2 0.5 μM
# T4 sequence (P24460 1-494): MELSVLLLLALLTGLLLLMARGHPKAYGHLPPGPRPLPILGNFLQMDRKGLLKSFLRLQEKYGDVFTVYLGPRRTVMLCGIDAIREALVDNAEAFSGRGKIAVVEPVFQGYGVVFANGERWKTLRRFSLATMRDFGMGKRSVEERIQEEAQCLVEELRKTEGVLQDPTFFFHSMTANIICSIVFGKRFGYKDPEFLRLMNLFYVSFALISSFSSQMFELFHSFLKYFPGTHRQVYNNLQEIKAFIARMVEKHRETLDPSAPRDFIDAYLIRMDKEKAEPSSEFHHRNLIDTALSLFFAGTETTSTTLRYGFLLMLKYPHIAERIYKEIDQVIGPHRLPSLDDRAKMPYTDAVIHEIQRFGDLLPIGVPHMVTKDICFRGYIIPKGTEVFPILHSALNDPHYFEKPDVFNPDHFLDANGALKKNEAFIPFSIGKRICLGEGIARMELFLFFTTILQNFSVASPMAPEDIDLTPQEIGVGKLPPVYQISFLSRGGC
# [9] = test system: CYP3A26; type: in vitro ADME, canine; settings: recombinant CYP3A26; (+)-M1 10 μM, (+)-M2 0.5 μM
# CYP3A12, sequence (P24463 whole entry): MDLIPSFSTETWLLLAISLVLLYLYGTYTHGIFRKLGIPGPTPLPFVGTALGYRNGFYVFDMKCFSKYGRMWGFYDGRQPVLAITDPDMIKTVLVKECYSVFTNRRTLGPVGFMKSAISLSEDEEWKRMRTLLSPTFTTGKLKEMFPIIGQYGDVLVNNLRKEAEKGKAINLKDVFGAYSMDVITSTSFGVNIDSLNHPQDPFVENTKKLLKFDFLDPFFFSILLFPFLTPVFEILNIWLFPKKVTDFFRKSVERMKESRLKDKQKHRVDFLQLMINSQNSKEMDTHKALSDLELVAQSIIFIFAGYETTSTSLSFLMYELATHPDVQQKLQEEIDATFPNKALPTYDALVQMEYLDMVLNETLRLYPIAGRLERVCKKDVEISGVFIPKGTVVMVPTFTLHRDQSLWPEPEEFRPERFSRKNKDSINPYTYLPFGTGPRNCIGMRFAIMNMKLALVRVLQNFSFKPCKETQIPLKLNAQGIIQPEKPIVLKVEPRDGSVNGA
structure (smiles),measurement,setting,value
"CN(C)CC1CCCCC1(O)c1cccc(O)c1.Cl (single isomer, unassigned; (+)) [(+)-M1, (+)-O-desmethyltramadol hydrochloride]",(+)-M5 formation rate (in words),[1],low activities
same,formation rate of (+)-M5 (in words),[2],only very low activities
same,formation rate of (+)-M5 (in words),[3],highest
same,(+)-M5 formation rate (in words),[4],low activities
same,formation rate of (+)-M5 (in words),[5],only very low activities
same,Km,[6]; Dog 10 liver microsomes,158 µM
same,Vmax,[6]; Dog 10 liver microsomes,63 pmol/min/mg protein
same,Km,[6]; Dog 31 liver microsomes,64 µM
same,Vmax,[6]; Dog 31 liver microsomes,67 pmol/min/mg protein
same,Km,[6]; Dog 46 liver microsomes,108 µM
same,Vmax,[6]; Dog 46 liver microsomes,94 pmol/min/mg protein
same,Km,[6]; pDLM (liver microsomes pooled from 59 dogs),112 µM
same,Vmax,[6]; pDLM (pooled from 59 dogs),61 pmol/min/mg protein
same,(+)-M5 formation rate (in words),"[6]; pooled dog liver microsomes (n = 59), (+)-M1 at 10 μM, (+)-M2 at 0.5 μM",highest activities
same,formation rate of (+)-M5 (in words),[7],only very low activities
same,formation rate of (+)-M5 (in words),[8],somewhat lower activities
same,formation rate of (+)-M5 (in words),[9],only very low activities
